We go through 18 molecules from ChEMBL document CHEMBL5154646, “Structure-guided optimization of 1H-imidazole-2-carboxylic acid derivatives affording potent VIM-Type metallo-β-lactamase inhibitors” (Eur J Med Chem, 2022).

The term IC50 denotes the concentration that inhibits the measured activity by half.

What all share (set-up): species or system Bacteria
Assay [1] in a line: Inhibition of bacterial VIM-2 (27 to 266 residues) expressed in Escherichia coli Transetta (DE3) using FC-5 as substrate preincubated with enzyme for 10 mins followed by substrate addition by fluorescence based analysis.
Assay [2] in a line: Inhibition of bacterial recombinant full length C-terminal-TEV-His6-tagged VIM-1 expressed in Escherichia coli Transetta using FC-5 as substrate preincubated with enzyme for 10 mins followed by substrate addition by fluorescence based analysis.
Assay [3] in a line: Inhibition of bacterial recombinant full length N-terminal-TEV-His6-tagged VIM-5 expressed in Escherichia coli Transetta using FC-5 as substrate preincubated with enzyme for 10 mins followed by substrate addition by fluorescence based analysis.
Assay [4] in a line: Inhibition of bacterial NDM-1 (1 to 270 residues) expressed in Escherichia coli Transetta (DE3) using FC-5 as substrate preincubated with enzyme for 10 mins followed by substrate addition by fluorescence based analysis.
A short description of assay [5]: Inhibition of bacterial IMP-1 (1 to 246 residues) expressed in Escherichia coli Transetta (DE3) using FC-5 as substrate preincubated with enzyme for 10 mins followed by substrate addition by fluorescence based analysis.

In the case of `O=C(O)c1nccn1C1CCCC1`, the IC50 in assay [1] is 70.4 µM; in assay [2], 76.9 µM; in assay [3], above 300 µM; in assay [4] it was above 300 µM; in assay [5] it was above 300 µM.
Regarding `CN(C)CCCn1ccnc1C(=O)O`, the IC50 in assay [1], in assay [2], in assay [3], in assay [4] and in assay [5] was above 300 µM throughout.
With `O=C(O)c1nccn1Cc1ccoc1`, the IC50 in assay [1] was 42.7 µM; in assay [2] it was above 300 µM; in assay [3] it was above 300 µM; in assay [4], above 300 µM; in assay [5] it was above 300 µM.
`O=C(O)c1nccn1Cc1ccc(Cl)c(Cl)c1`: the IC50 in assay [1] came out at 0.014 µM; in assay [2], 2.83 µM; in assay [3], 0.052 µM; in assay [4], 16.4 µM; in assay [5], 9.25 µM.
In the case of `CCn1ccnc1C(=O)O`, the IC50 was 32 µM in assay [1]; above 300 µM in assay [2]; above 300 µM in assay [3]; above 300 µM in assay [4]; above 300 µM in assay [5].
Regarding `O=C(O)c1nccn1Cc1ccco1`, the IC50 in assay [1] was 1.55 µM; in assay [2] it was 11.7 µM; in assay [3] it was 21 µM; in assay [4], above 300 µM; in assay [5], 10.3 µM.
For `O=C(O)c1nccn1C1CNC1`, in that order: 68.1 µM, 26 µM, 104 µM, above 300 µM and above 300 µM.
For `CC(O)Cn1ccnc1C(=O)O` (stereo not given) the same measures were above 300 µM, above 300 µM, above 300 µM, above 300 µM and above 300 µM.
On to `O=C(O)c1nccn1Cc1cccc([N+](=O)[O-])c1`, for which the IC50 in assay [1] is 3.58 µM; in assay [2], above 300 µM; in assay [3], 18.9 µM; in assay [4], above 300 µM; in assay [5] it was above 300 µM.
As for `CC(C)n1ccnc1C(=O)O`, the IC50 is 10.1 µM in assay [1]; 21.2 µM in assay [2]; 133 µM in assay [3]; above 300 µM in assay [4]; above 300 µM in assay [5].
As for `O=C(O)c1ncc(C2CC2)n1Cc1ccccc1`, the IC50 was determined as 0.13 µM in assay [1]; 15.5 µM in assay [2]; 0.18 µM in assay [3]; 34.1 µM in assay [4]; 110 µM in assay [5].
Regarding `COC(=O)C(C)n1ccnc1C(=O)O` (stereo not given), the IC50 in assay [1], in assay [2], in assay [3], in assay [4] and in assay [5] was above 300 µM each time.
As to `O=C(O)c1nccn1Cc1ccccn1`, the IC50 in assay [1] was 5.54 µM; in assay [2], above 300 µM; in assay [3] it was above 300 µM; in assay [4] it was above 300 µM; in assay [5] it was above 300 µM.
With `CC(C)Cn1ccnc1C(=O)O`, the IC50 in assay [1] is 1.1 µM; in assay [2] it was 22.9 µM; in assay [3] it was 7.02 µM; in assay [4] it was above 300 µM; in assay [5], above 300 µM.
As for `CCC(C)n1ccnc1C(=O)O` (stereo not given), the IC50 in assay [1] is 2.04 µM; in assay [2] it was 21.3 µM; in assay [3], 31.6 µM; in assay [4], above 300 µM; in assay [5], above 300 µM.
Turning to `O=C(O)c1nccn1Cc1cccnc1Cl`, the IC50 in assay [1] is 0.77 µM; in assay [2], 30.5 µM; in assay [3], 22 µM; in assay [4], above 300 µM; in assay [5], above 300 µM.
Take `O=C(O)c1nccn1CCO`: the IC50 in assay [1] was 75.2 µM; in assay [2], above 300 µM; in assay [3], above 300 µM; in assay [4], above 300 µM; in assay [5], above 300 µM.
Take `O=C(O)c1nccn1CCn1ccnn1`: the IC50 was 6.68 µM in assay [1]; above 300 µM in assay [2]; 47.3 µM in assay [3]; above 300 µM in assay [4]; above 300 µM in assay [5].
